Target: T1, Vc (6-4) PL (Vibrio cholerae, UniProt Q9KLD7)
T1 construct: gene VC_A0809
Assay: X-ray crystallography, […] Å
Type: binding
Details: 100 K

T1 sequence (Q9KLD7 1-516 limits assumed): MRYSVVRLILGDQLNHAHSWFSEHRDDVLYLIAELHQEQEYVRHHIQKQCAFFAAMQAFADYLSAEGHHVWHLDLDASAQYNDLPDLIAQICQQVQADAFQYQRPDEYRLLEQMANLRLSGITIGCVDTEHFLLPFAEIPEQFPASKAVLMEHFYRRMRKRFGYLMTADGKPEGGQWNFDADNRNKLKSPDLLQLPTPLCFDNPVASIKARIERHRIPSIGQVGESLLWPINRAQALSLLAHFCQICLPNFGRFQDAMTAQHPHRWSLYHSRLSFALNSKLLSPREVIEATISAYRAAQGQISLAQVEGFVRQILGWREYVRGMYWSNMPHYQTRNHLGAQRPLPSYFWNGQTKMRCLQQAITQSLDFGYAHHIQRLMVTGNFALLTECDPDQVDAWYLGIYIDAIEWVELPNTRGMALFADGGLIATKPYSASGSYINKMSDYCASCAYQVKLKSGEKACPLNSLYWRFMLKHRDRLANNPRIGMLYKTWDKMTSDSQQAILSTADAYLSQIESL

[S]12[Fe]3[S]4[Fe]1[S]1[Fe]2[S]3[Fe]41 [[4Fe-4S] cluster]
X-ray crystallography, 2.5 Å (bound by Cys357, Cys445, Cys448, Cys461, covalent coordination, co-purified aerobically): Cys357, Cys445, Cys448, and Cys461 sulfide atoms make bonds with Fe atoms in the cluster

Cc1cc2nc3c(=O)[nH]c(=O)nc-3n(C[C@H](O)[C@H](O)[C@H](O)COP(=O)(O)OP(=O)(O)OC[C@H]3O[C@@H](n4cnc5c(N)ncnc54)[C@H](O)[C@@H]3O)c2cc1C [FAD]
X-ray crystallography, 2.5 Å (catalytic site in alpha-helical domain, co-purified, redox state not stated): FAD has a U-shaped conformation in the α-helical domain

Cc1nc2c(=O)[nH]c(=O)nc-2n(C[C@H](O)[C@H](O)[C@H](O)CO)c1C [DMRL]
X-ray crystallography, 2.5 Å (photoantenna site in alpha/beta domain, co-purified): there is a very well-defined electron density of the DMRL and interacting amino acid residues

From paper PMC9852545, “The crystal structure of Vibrio cholerae (6-4) photolyase reveals interactions with cofactors and a DNA-binding region” (The Journal of Biological Chemistry, 2022)
